Assay results: patent US8961946B2, “Hair processing agent and method for permanent waving hair” (Showa Denko K.K., priority 2004, dated 2015)
Counter-ions that a name gives are not always drawn.

Assay: Waving efficiency at various pH, compounds (i) and (ii) tested singly (FIG. 1)
Conditions: agent contains the compound at 2% by mass in terms of thioglycolic acid
Text: The hair processing agents tested herein contain the compound at 2% by mass in terms of thioglycolic acid. […] Consequently, the compounds (i) and (ii) in combination provide a permanent waving performance over a wide pH range.

Row | SMILES | Changes of waving efficiency at various pH (FIG. 1)
1 | NCCS [compound (ii), cysteamine hydrochloride] | low waving efficiency at acidic pH, but the waving efficiency linearly increases with the pH increase
2 | O=C1OCCC1S (centres unmarked) [Synthetic Example 1, 2-mercapto-4-butyrolactone] | high waving efficiency in an acidic to neutral pH range
